Assays:
[1] = species: Homo sapiens; assay: Fraction escaping gut-wall elimination in human; settings: in vivo
[2] = species: Homo sapiens; assay: Fraction absorbed in human; settings: in vivo
[3] = species: Homo sapiens; assay: Fraction escaping hepatic elimination in human; settings: in vivo
[4] = test system: Plasma; assay: Fraction unbound in human plasma
[5] = species: Homo sapiens; assay: Hepatic clearance in human; settings: in vivo
[6] = Volume of distribution at steady state in human; settings: in vivo
[7] = clinical; settings: human, in vivo
[8] = test system: Homo sapiens; assay: Oral bioavailability in human; settings: in vivo
[9] = clinical; settings: human, in vivo; remark: listed apart in the source

CCCCc1oc2ccccc2c1C(=O)c1cc(I)c(OCCN(CC)CC)c(I)c1 [AMIODARONE]
Fg [1]: 0.71 | Fa [2]: 1 | Fh [3]: 0.92

Cc1cc(NS(=O)(=O)c2ccc(N)cc2)no1 [SULFAMETHOXAZOLE]
Fg [1]: 1.01 | Fa [2]: 1 | Fh [3]: 0.99

CC(C)N(CCC(C(N)=O)(c1ccccc1)c1ccccn1)C(C)C (centres undefined) [DISOPYRAMIDE]
Fu [4]: 0.16 | CL [5]: 0.4 mL/min/kg

O=C1NCC2(CCN(CCc3ccccc3)CC2)O1 [FENSPIRIDE]
CL [5]: 0.8 mL/min/kg | Vd [6]: 3 L/kg | CL renal [7]: 1.8 mL/min/kg

O=C(O)c1cc(/N=N/c2ccc(O)c(C(=O)O)c2)ccc1O [OLSALAZINE]
CL [5]: 0.9 mL/min/kg | Vd [6]: 0.07 L/kg | CL renal [7]: 0.3 mL/min/kg

CCN1CCCC1CNC(=O)c1cc(S(N)(=O)=O)ccc1OC (centres undefined) [SULPIRIDE]
F_fraction [8]: 0.27 | CL [5]: 0.1 mL/min/kg | Vd [6]: 2.72 L/kg

c1ccc2c(c1)OCC(C1=NCCN1)O2 (centres undefined) [IDAZOXAN]
clearance [9]: 10 mL/min/kg | CL [5]: 10 mL/min/kg

O=P1(N(CCCl)CCCl)NCCCO1 (centres undefined) [CYCLOPHOSPHAMIDE ANHYDROUS]
Fg [1]: 0.86 | F_fraction [8]: 0.74 | CL [5]: 1 mL/min/kg | Fa [2]: 0.9 | Fh [3]: 0.96 | CL renal [7]: 0.1 mL/min/kg

CNC(=O)Oc1ccc2c(c1)[C@]1(C)CCN(C)[C@@H]1N2C [PHYSOSTIGMINE]
F_fraction [8]: 0.01 | clearance [9]: 22 mL/min/kg | CL [5]: 5.5 mL/min/kg | Vd [6]: 0.66 L/kg | CL renal [7]: 16.5 mL/min/kg

C[C@@H]1[C@H](O)[C@@H](C)/C=C/C=C/C=C/C=C/C=C/C=C/C=C/[C@H](O[C@@H]2O[C@H](C)[C@@H](O)[C@H](N)[C@@H]2O)C[C@@H]2O[C@](O)(C[C@@H](O)C[C@@H](O)[C@H](O)CC[C@@H](O)C[C@@H](O)CC(=O)O[C@H]1C)C[C@H](O)[C@H]2C(=O)O [AMPHOTERICIN B]
clearance [9]: 0.46 mL/min/kg | CL [5]: 0.4 mL/min/kg | CL renal [7]: 0.0138 mL/min/kg

Nc1nnc(-c2cccc(Cl)c2Cl)c(N)n1 [LAMOTRIGINE]
F_fraction [8]: 0.98 | clearance [9]: 0.6 mL/min/kg | CL [5]: 0.6 mL/min/kg | CL renal [7]: 0.042 mL/min/kg

C[C@]12C=CC(=O)C=C1CC[C@@H]1[C@@H]2[C@@H](O)C[C@@]2(C)[C@H]1CC[C@]2(O)C(=O)CO [PREDNISOLONE]
Fu [4]: 0.25 | CL [5]: 2.3 mL/min/kg

CCCCCN(CCCOC)C(=O)C(CCC(=O)O)NC(=O)c1ccc(Cl)c(Cl)c1 (centres undefined) [LOXIGLUMIDE]
clearance [9]: 1 mL/min/kg | CL [5]: 1 mL/min/kg | CL renal [7]: 0.022 mL/min/kg

Nc1nc(O)c2ncn(COC(CO)CO)c2n1 [GANCICLOVIR]
F_fraction [8]: 0.09 | CL [5]: 0.5 mL/min/kg | Vd [6]: 1 L/kg

O=C1Cc2cc(CCN3CCN(c4nsc5ccccc45)CC3)c(Cl)cc2N1 [ZIPRASIDONE]
CL [5]: 5 mL/min/kg | Vd [6]: 1 L/kg | CL renal [7]: 0.1 mL/min/kg

CC(C)NCC(O)COc1ccc(CC(N)=O)cc1 (centres undefined) [ATENOLOL]
Fg [1]: 1 | Fh [3]: 1

C[C@@H](O)[C@H]1C(=O)N2C(C(=O)O)=C(SCCN=CN)C[C@H]12 [IMIPENEM ANHYDROUS]
clearance [9]: 3 mL/min/kg | CL [5]: 1.5 mL/min/kg | CL renal [7]: 1.5 mL/min/kg

CNCCC=C1c2ccccc2CCc2ccccc21 [NORTRIPTYLINE]
Fg [1]: 0.89 | F_fraction [8]: 0.51 | CL [5]: 9.8 mL/min/kg | Fa [2]: 1 | Fh [3]: 0.57

CC(C)NCC(O)COc1ccc(CCOCC2CC2)cc1 (centres undefined) [BETAXOLOL]
Fg [1]: 1.01 | F_fraction [8]: 0.89 | CL [5]: 2.7 mL/min/kg | Fa [2]: 1 | Fh [3]: 0.88

CN1CCC[C@H]1c1cccnc1 [NICOTINE]
Fg [1]: 0.86 | F_fraction [8]: 0.3 | CL [5]: 15 mL/min/kg | Fa [2]: 1 | Fh [3]: 0.35

Cc1nnc2n1-c1ccc(Cl)cc1C(c1ccccc1)=NC2 [ALPRAZOLAM]
CL [5]: 0.6 mL/min/kg | Vd [6]: 0.8 L/kg | CL renal [7]: 0.1 mL/min/kg

O=C1NC(=O)C(c2ccccc2)(c2ccccc2)N1 [PHENYTOIN]
clearance [9]: 0.37 mL/min/kg | CL [5]: 0.4 mL/min/kg | Fh [3]: 0.98 | CL renal [7]: 0.0074 mL/min/kg

Cc1ncc([N+](=O)[O-])n1CCO [METRONIDAZOLE]
CL [5]: 0.7 mL/min/kg | Vd [6]: 0.4 L/kg | CL renal [7]: 0.2 mL/min/kg

CC1=C(C(=O)O)N2C(=O)[C@@H](NC(=O)[C@H](N)c3ccccc3)[C@H]2SC1 [CEPHALEXIN ANHYDROUS]
Fg [1]: 0.91

CN/C(=N/CCSCc1nc[nH]c1C)NC#N [CIMETIDINE]
F_fraction [8]: 0.68 | CL [5]: 0.2 mL/min/kg | Fa [2]: 0.68 | Fh [3]: 0.99

Nc1ccc(S(=O)(=O)Nc2ncccn2)cc1 [SULFADIAZINE]
Fg [1]: 1.01 | F_fraction [8]: 0.85 | CL [5]: 0.2 mL/min/kg | Fa [2]: 0.85 | Fh [3]: 0.99 | CL renal [7]: 0.3 mL/min/kg

CN1C(C(=O)Nc2ccccn2)=C(O)c2sccc2S1(=O)=O [TENOXICAM]
Fg [1]: 1 | F_fraction [8]: 1 | CL [5]: 0.0297 mL/min/kg | Fa [2]: 1 | Fh [3]: 1 | CL renal [7]: 0.0003 mL/min/kg

O=C(O)P(=O)(O)O [FOSCARNET]
CL [5]: 0.4 mL/min/kg | Vd [6]: 0.5 L/kg

O=C(O)c1cn(C2CC2)c2cc(N3CCNCC3)c(F)cc2c1=O [CIPROFLOXACIN]
Fg [1]: 0.98 | Fa [2]: 0.75 | Fh [3]: 0.94

COc1cc([C@@H]2c3cc4c(cc3[C@@H](O[C@@H]3O[C@@H]5CO[C@@H](C)O[C@H]5[C@H](O)[C@H]3O)[C@H]3COC(=O)[C@H]23)OCO4)cc(OC)c1O [ETOPOSIDE]
clearance [9]: 0.5 mL/min/kg | CL [5]: 0.3 mL/min/kg | Fh [3]: 0.99 | CL renal [7]: 0.2 mL/min/kg

Cc1onc(-c2ccccc2Cl)c1C(=O)N[C@@H]1C(=O)N2[C@@H]1SC(C)(C)[C@@H]2C(=O)O [CLOXACILLIN]
clearance [9]: 1.6 mL/min/kg | CL [5]: 0.6 mL/min/kg | CL renal [7]: 1 mL/min/kg

CC(C(=O)O)c1ccc(C(=O)c2cccs2)cc1 (centres undefined) [SUPROFEN]
CL [5]: 0.7 mL/min/kg | Vd [6]: 0.04 L/kg | CL renal [7]: 0.0357 mL/min/kg

CN1[C@@H]2CC[C@H]1C[C@@H](OC(=O)C(CO)c1ccccc1)C2 (some centres undefined) [ATROPINE]
Fg [1]: 0.59 | Fa [2]: 0.98 | Fh [3]: 0.86

CN1[C@@H]2C[C@@H](OC(=O)[C@H](CO)c3ccccc3)C[C@H]1[C@@H]1O[C@@H]12 [SCOPOLAMINE]
Fg [1]: 0.82 | Fh [3]: 0.35

O=C(O)c1cc(/N=N/c2ccc(S(=O)(=O)Nc3ccccn3)cc2)ccc1O [SULFASALAZINE]
clearance [9]: 0.24 mL/min/kg | CL [5]: 0.2 mL/min/kg | CL renal [7]: 0.1 mL/min/kg

CC(C)c1nc(CN(C)C(=O)N[C@H](C(=O)N[C@@H](Cc2ccccc2)C[C@H](O)[C@H](Cc2ccccc2)NC(=O)OCc2cncs2)C(C)C)cs1 [RITONAVIR]
clearance [9]: 1.2 mL/min/kg | CL [5]: 1.2 mL/min/kg | CL renal [7]: 0.042 mL/min/kg

COc1cc(Cc2cnc(N)nc2N)cc(OC)c1OC [TRIMETHOPRIM]
Fg [1]: 0.83 | F_fraction [8]: 0.76 | Fa [2]: 0.97 | Fh [3]: 0.95

Clc1ccc2nsnc2c1NC1=NCCN1 [TIZANIDINE]
Fg [1]: 0.39 | F_fraction [8]: 0.21 | CL [5]: 10.7 mL/min/kg | Fa [2]: 1 | Fh [3]: 0.54 | CL renal [7]: 0.3 mL/min/kg

CNC[C@H](O)CC12CCC(c3ccccc31)c1ccccc12 [LEVOPROTILINE]
clearance [9]: 12.3 mL/min/kg | CL [5]: 12.1 mL/min/kg | CL renal [7]: 0.2 mL/min/kg

Source: ChEMBL document CHEMBL1156824, “Physicochemical space for optimum oral bioavailability: contribution of human intestinal absorption and first-pass elimination” (J Med Chem, 2010)
